Assay results as given in article doi:10.1101/2023.09.07.556657v1 (biorxiv, 2023).

Biological target: T1, Cf-SGBP-CBMxxIV (Christiangramia forsetii, UniProt A0M709)
T1 sequence (A0M709 740-904): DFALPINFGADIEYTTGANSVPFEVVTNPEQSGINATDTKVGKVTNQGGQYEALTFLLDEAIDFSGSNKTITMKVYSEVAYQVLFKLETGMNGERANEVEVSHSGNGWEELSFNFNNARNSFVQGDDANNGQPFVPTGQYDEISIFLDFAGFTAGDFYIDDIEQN
Assay: isothermal titration calorimetry
Type: binding
Details: 293.15 K, pH 7.8, 10 mM MOPS, 100 mM NaCl; single-site model

Ka	SMILES
1.39 (± 0.07) x10^4	OC[C@H]1O[C@@H](O[C@@H]2[C@@H](O)[C@H](O[C@@H]3[C@@H](O)[C@H](O[C@@H]4[C@@H](O)[C@H](O[C@H]5[C@H](O)[C@@H](CO)OC(O)[C@@H]5O)O[C@H](CO)[C@H]4O)O[C@H](CO)[C@H]3O)O[C@H](CO)[C@H]2O)[C@H](O)[C@@H](O)[C@@H]1O (some centres unmarked) [DP5, laminaripentaose]
1.87 (± 0.17) x10^4	OC[C@H]1O[C@@H](O[C@@H]2[C@@H](O)[C@H](O[C@@H]3[C@@H](O)[C@H](O[C@@H]4[C@@H](O)[C@H](O[C@@H]5[C@@H](O)[C@H](O[C@@H]6[C@@H](O)[C@H](O[C@H]7[C@H](O)[C@@H](CO)OC(O)[C@@H]7O)O[C@H](CO)[C@H]6O)O[C@H](CO)[C@H]5O)O[C@H](CO)[C@H]4O)O[C@H](CO)[C@H]3O)O[C@H](CO)[C@H]2O)[C@H](O)[C@@H](O)[C@@H]1O (some centres unmarked) [DP7, laminariheptaose]
